Entries after “also recorded” stand apart in the source; their conditions may differ. Ends that are not written are not given here.
Assays:
[1] = system: MRSA; experiment: MIC (broth microdilution); format: cell-based, Methicillin-resistant Staphylococcus aureus
Protocol: (§1) Typically, the in vitro antimicrobial activity of antimicrobial agents is tested using standard NCCLS bacterial inhibition assays, or MIC tests (see, National Committee on Clinical Laboratory Standards “Performance Standards for Antimicrobial Susceptibility Testing,” NCCLS Document M100-S5 Vol. 14, No. 16, December 1994; “Methods for dilution antimicrobial susceptibility test for bacteria that grow aerobically-Third Edition,” Approved Standard M7-A3, National Committee for Clinical Standards, Villanova, Pa.).
(§2) Briefly, ˜1×10^5 cfu/mL bacteria were diluted in TH (S. mutans), or Mueller-Hinton (MH) broth (all other organisms) and distributed to 96-well plates. Serially-diluted (2-fold) peptides were then added and the plates incubated at 37° C. for 18-24 h. […] All experiments were conducted 10 times.

[2] = system: S. epidermidis; format: cell-based, Staphylococcus epidermidis; details: S. epidermidis; for Organism, effect: test concentration or dose not given here
Protocol: as §1, §2

[3] = system: MRSA; experiment: Kill or inhibit growth/proliferation; morphology, biofilm and growth disruption (Tables 5, 6); format: cell-based, Methicillin-resistant Staphylococcus aureus; design: key: A: Peptide aggregates; B: Less hyphal formation; Clumps; Diffuse clumps and small polyps; F: Diffuse growth; H: Thin; I: Growth inhibition; Microcolony formation; Rippled; Small polyps; Thick; W: Halo formation on top, microlonies on bottom; note: test concentration or dose not given here
[4] = system: S. epidermidis; experiment: as above; format: cell-based, Staphylococcus epidermidis; design: key: A: Peptide aggregates; B: Less hyphal formation; Clumps; Diffuse clumps and small polyps; F: Diffuse growth; H: Thin; I: Growth inhibition; Microcolony formation; Rippled; Small polyps; Thick; W: Halo formation on top, microlonies on bottom
[5] = system: S. mutans; experiment: as above; format: cell-based, Streptococcus mutans; design: key: A: Peptide aggregates; B: Less hyphal formation; Clumps; Diffuse clumps and small polyps; F: Diffuse growth; H: Thin; I: Growth inhibition; Microcolony formation; Rippled; Small polyps; Thick; W: Halo formation on top, microlonies on bottom; note: test concentration or dose not given here
[6] = system: S. pneumoniae; experiment: as above; format: cell-based, Streptococcus pneumoniae; design: key: A: Peptide aggregates; B: Less hyphal formation; Clumps; Diffuse clumps and small polyps; F: Diffuse growth; H: Thin; I: Growth inhibition; Microcolony formation; Rippled; Small polyps; Thick; W: Halo formation on top, microlonies on bottom
[7] = system: microorganisms; experiment: Peptides having multiple activities (targeting/binding, antimicrobial, growth or phenotype altering)
From the text: In certain embodiments, peptides described herein can have multiple activities. Thus for example, a peptide can have both binding/targeting activity and antimicrobial activity. Such peptides can be used, e.g., in a chimeric construct, for any or all of these properties. Thus, for example, a peptide designated “B” in Table 8 can be used as a targeting peptide. If it is also designated G or M it can also be used for antimicrobial activity.

[8] = system: A. niger; experiment: MIC (broth microdilution); format: cell-based, Aspergillus niger
Protocol: as §1, §2

[9] = system: S. pneumoniae; experiment: MIC (broth microdilution); format: cell-based, Streptococcus pneumoniae
Protocol: as §1, §2

[10] = system: microorganisms (e.g., bacteria, yeasts, fungi); experiment: Targeting peptide binding to target microorganisms (Table 3); details: preferably 1x PBS; for Target(s): microorganism(s) the targeting peptide binds; for Target(s) (microorganisms bound by the targeting peptide): peptide binding in aqueous buffers varied by peptide solubility
[11] = system: F. nucleatum; experiment: Kill or inhibit growth/proliferation; morphology, biofilm and growth disruption (Tables 5, 6); format: cell-based, Fusobacterium nucleatum; design: key: A: Peptide aggregates; B: Less hyphal formation; Clumps; Diffuse clumps and small polyps; F: Diffuse growth; H: Thin; I: Growth inhibition; Microcolony formation; Rippled; Small polyps; Thick; W: Halo formation on top, microlonies on bottom; note: test concentration or dose not given here
[12] = system: P. gingivalis; experiment: as above; format: cell-based, Porphyromonas gingivalis; design: key: A: Peptide aggregates; B: Less hyphal formation; Clumps; Diffuse clumps and small polyps; F: Diffuse growth; H: Thin; I: Growth inhibition; Microcolony formation; Rippled; Small polyps; Thick; W: Halo formation on top, microlonies on bottom; note: test concentration or dose not given here
[13] = system: P. aeruginosa; experiment: as above; format: cell-based, Pseudomonas aeruginosa; design: key: A: Peptide aggregates; B: Less hyphal formation; Clumps; Diffuse clumps and small polyps; F: Diffuse growth; H: Thin; I: Growth inhibition; Microcolony formation; Rippled; Small polyps; Thick; W: Halo formation on top, microlonies on bottom; note: test concentration or dose not given here
[14] = system: B. subtilis; experiment: MIC (broth microdilution); format: cell-based, Bacillus subtilis
Protocol: as §1, §2

[15] = system: B. subtilis; experiment: Kill or inhibit growth/proliferation; morphology, biofilm and growth disruption (Tables 5, 6); format: cell-based, Bacillus subtilis; design: key: A: Peptide aggregates; B: Less hyphal formation; Clumps; Diffuse clumps and small polyps; F: Diffuse growth; H: Thin; I: Growth inhibition; Microcolony formation; Rippled; Small polyps; Thick; W: Halo formation on top, microlonies on bottom; note: test concentration or dose not given here
[16] = system: C. jeikeium; experiment: as above; format: cell-based, Corynebacterium jeikeium; design: key: A: Peptide aggregates; B: Less hyphal formation; Clumps; Diffuse clumps and small polyps; F: Diffuse growth; H: Thin; I: Growth inhibition; Microcolony formation; Rippled; Small polyps; Thick; W: Halo formation on top, microlonies on bottom; note: test concentration or dose not given here
[17] = system: E. faecalis; experiment: as above; format: cell-based, Enterococcus faecalis; design: key: A: Peptide aggregates; B: Less hyphal formation; Clumps; Diffuse clumps and small polyps; F: Diffuse growth; H: Thin; I: Growth inhibition; Microcolony formation; Rippled; Small polyps; Thick; W: Halo formation on top, microlonies on bottom; note: test concentration or dose not given here
[18] = system: C. albicans; experiment: as above; format: cell-based, Candida albicans; design: key: A: Peptide aggregates; B: Less hyphal formation; Clumps; Diffuse clumps and small polyps; F: Diffuse growth; H: Thin; I: Growth inhibition; Microcolony formation; Rippled; Small polyps; Thick; W: Halo formation on top, microlonies on bottom; note: test concentration or dose not given here
[19] = peptide binding conducted in aqueous buffers varied by peptide solubility
Throughout, for Organism, effect: test concentration or dose not given here.

Substance	Activities [7]	Organism, effect (morphology, biofilm and growth disruption) [5]	Organism, effect (morphology, biofilm and growth disruption) [11]	Organism, effect (morphology, biofilm and growth disruption) [12]	Target(s) (microorganisms bound by the targeting peptide) [10]	other results
KFQGEFTNIGQSYIVSASHMSTSLNTGK [PF-583]	G B M	–	–	–	–	MIC [1]: MRSA , 50 μM; MIC [2]: S. epidermidis, 50 μM; Organism, effect [3]: MRSA (I); Organism, effect [4]: S. epidermidis (I); Organism, effect [5]: S. mutans (F); Organism, effect [6]: S. pneumoniae (D)
LSEMERRRLRKRA-NH2 [PF-529]	G B M	–	–	–	–	MIC [8]: A. niger, 50 μM; MIC [9]: S. pneumoniae, 50 μM; Organism, effect [6]: S. pneumoniae (H); Target(s) [10, 19]: S. epidermidis and E. coli and C. albicans and MRSA and S. pneumoniae and E. faecalis and C. jeikeium
NTNDLLQAFELMGLGMAGVFIVLGILYIVAELLIKIFPVNN [PF-C194]	G B	S. mutans (F)	F. nucleatum (T)	P. gingivalis (T)	A. naeslundii; also recorded: F. nucleatum; also recorded: P. gingivalis; also recorded: S. mutans; also recorded: T. denticola	–
NYAVVSHT [PF-209]	G B M	–	–	–	–	MIC [1]: MRSA , 50 μM; Organism, effect [3]: MRSA (I); Organism, effect [4]: S. epidermidis (C); Organism, effect [13]: P. aeruginosa (H); Target(s) ([10]; binding in aqueous buffers depending on peptide solubility): C. albicans; also recorded: C. jeikeium; also recorded: C. jejuni
PF-C052: peptide having multiple activities (SRFRNGV; Peptide with targeting and/or antimicrobial activity)	G B	–	–	P. gingivalis (H)	A. naeslundii; also recorded: F. nucleatum; also recorded: S. mutans	–
PF-C075: peptide having multiple activities (KALVISVFAIVFSIIFVKFFYWRDKK; Peptide with targeting and/or antimicrobial activity)	G B	S. mutans (F)	F. nucleatum (T)	P. gingivalis (R)	A. naeslundii; also recorded: F. nucleatum; also recorded: P. gingivalis; also recorded: S. mutans; also recorded: T. denticola	–
PF-C084: peptide having multiple activities (FFSVIFLFGLNYLICNSPLFNILR; Peptide with targeting and/or antimicrobial activity)	G B	S. mutans (F)	F. nucleatum (T)	P. gingivalis (R)	A. naeslundii; also recorded: F. nucleatum; also recorded: P. gingivalis; also recorded: S. mutans	–
PF-C088: peptide having multiple activities (DIANNILNSVSERLIIA; Peptide with targeting and/or antimicrobial activity)	G B	S. mutans (I)	F. nucleatum (H)	P. gingivalis (R)	A. naeslundii; also recorded: F. nucleatum; also recorded: P. gingivalis; also recorded: S. mutans; also recorded: T. denticola	–
PF-C089 (MPKRHYYKLEAKALQFGLPFAYSPIQLLK; Peptide with targeting and/or antimicrobial activity)	–	–	–	P. gingivalis (R)	–	–
PF-C136: peptide having multiple activities (LILSYQASVYPLFAYLCQQKDY; Peptide with targeting and/or antimicrobial activity)	G B	–	F. nucleatum (C)	P. gingivalis (R)	A. naeslundii; also recorded: F. nucleatum; also recorded: P. gingivalis; also recorded: S. mutans; also recorded: T. denticola	–
PF-C180: peptide having multiple activities (TVEELDKAFTWGAAAALAIGVIAINVGLAAGYCYNNNDVF; Peptide with targeting and/or antimicrobial activity)	G B	S. mutans (S)	–	P. gingivalis (R)	F. nucleatum; also recorded: P. gingivalis; also recorded: S. mutans; also recorded: T. denticola	–
PF-C293 (IIIILPKIYLVCKTV; Peptide with targeting and/or antimicrobial activity)	–	S. mutans (F)	F. nucleatum (T)	P. gingivalis (R)	–	–
RESKLIAMADMIRRRI-NH2 [PF-545]	G B M	–	–	–	–	MIC [1]: MRSA , 50 μM; MIC [8]: A. niger, 50 μM; MIC [14]: B. subtilis, 25 μM; Organism, effect [15]: B. subtilis (I); Organism, effect [16]: C. jeikeium (H); Organism, effect [17]: E. faecalis (H); Organism, effect [18]: C. albicans (B); Target(s) [10, 19]: S. epidermidis; also recorded: E. coli; also recorded: P. aeruginosa; also recorded: S. pneumoniae; also recorded: E. faecalis; also recorded: C. jeikeium
SLQSQLGPCLHDQRH [PF-448]	G B M	–	–	–	–	MIC [8]: A. niger, 25 μM; MIC [9]: S. pneumoniae, 50 μM; Organism, effect [6]: S. pneumoniae (I); Target(s) [10, 19]: S. epidermidis; also recorded: M. luteus; also recorded: P. mirabilis; also recorded: E. coli; also recorded: S. pneumoniae; also recorded: E. faecalis; also recorded: C. jeikeium; also recorded: C. jejuni

Reference: patent publication US20110039762A1, “TARGETED ANTIMICROBIAL MOIETIES” (C3 JIAN, INC., priority 2009, published 2011)
